test system: Human Umbilical Vein Endothelial Cells (HUVECs); test: Cell scratch experiment, inhibition of endothelial cell migration; assay type: cell-based; design: Ranking by experiment results: dose or concentration left out as unconfirmed; details: single medicine; 9 h intervention; FIG. 4
Text: Experiment: cell scratch experiments were used to quantitively measure the inhibition of medicines on migration. […] Sterile operation had to be ensured during cell scrapping process. Human Umbilical Vein Endothelial Cells (HUVECs) available from Cascade Biologics (Portland, USA) were repeatably cultured with the supplier's criterions; Matrine, quercetin, emodin, evodiamine, genistein, and aconitine were purchased from National Institute for the Control of Pharmaceutical and Biological Products, and their experimental density were set at 10 mM as indicated by literature. HUVECs were cultured on 12-plate coated by 0.1% gelatin, the cells were inactivated after 2 hours under the conditions of 5% CO2, 37° C. and 10 ug/ml of Mitonycin C. Cell scraper about 1 mm in width was used to scrap on the fused surface of single-layer of cells. Standard endothelial cell growth medium (ECGM) free of medicine application was taken as control group. Pictures were taken at 6 h−10 h of medicine intervention by Nikon digital camera, with migration distance being scaled by configure software. The experiment was repeated five times. The […] ability of the medicines was measured by Migration Inhibition Rate, determined as:
Migration Inhibition Rate=(migration distance of control group−migration distance of experimental group)/migration distance of control group

Molecule	inhibition on endothelial cell migration (in words)
O=C1CCC[C@@H]2[C@H]3CCCN4CCC[C@@H](CN12)[C@@H]34 [Matrine]	strongest inhibition

same assay, conditions: single medicine; rank of migration inhibition among six medicines; 9 h

Molecule	Ranking by experiment results
CCN1C[C@]2(COC)[C@H](O)C[C@H](OC)[C@@]34[C@@H]5C[C@@]6(O)[C@H](OC(=O)c7ccccc7)[C@@H]5[C@@](OC(C)=O)([C@@H]([C@H](OC)[C@H]23)[C@@H]14)[C@@H](O)[C@@H]6OC [Aconitine]	6
Cc1cc(O)c2c(c1)C(=O)c1cc(O)cc(O)c1C2=O [Emodin]	3
O=c1c(-c2ccc(O)cc2)coc2cc(O)cc(O)c12 [Genistein]	5
O=C1CCC[C@@H]2[C@H]3CCCN4CCC[C@@H](CN12)[C@@H]34 [Matrine]	1
O=c1c(O)c(-c2ccc(O)c(O)c2)oc2cc(O)cc(O)c12 [Quercetin]	2
Evodiamine	4

— patent US20120035855A1, “METHOD OF NETWORK-BASED IDENTIFICATION FOR DRUG ACTION AND/OR SYNERGY EFFECT OF MEDICINE COMBINATION” (TSINGHUA UNIVERSITY, priority 2008, published 2012)
